Experimental data taken from paper PMC5218480 (PLoS ONE, 2017).

Tested on: MV-4-11 cells
Experiment: Gene expression microarray analysis (Affymetrix PrimeView) and GSEA
Format: cell-based, human
Design: RFU PODN (11730768_x_at) / Fold change /veh PODN (11730768_x_at) / RFU LINC00158 (11744669_a_at) / Fold change /veh LINC00158 (11744669_a_at) / RFU DUSP10 (11751237_a_at) / Fold change /veh DUSP10 (11751237_a_at) / RFU ID3 (11757404_x_at) / Fold change /veh ID3 (11757404_x_at) / RFU PLEKHG5 (11737974_s_at) / Fold change /veh PLEKHG5 (11737974_s_at) / RFU LRRC4B (11730491_at) / Fold change /veh LRRC4B (11730491_at) / RFU GIMAP4 (11747438_a_at) / Fold change /veh GIMAP4 (11747438_a_at) / RFU KRT8 (11758183_x_at) / Fold change /veh KRT8 (11758183_x_at) / RFU CNN1 (11734310_a_at) / Fold change /veh CNN1 (11734310_a_at) / RFU VPS37D (11726825_at) / Fold change /veh VPS37D (11726825_at) / RFU C10orf10 (11716522_x_at) / Fold change /veh C10orf10 (11716522_x_at) / RFU KIR2DL2 /// KIR2DL4 /// KIR2DL5A /// KIR2DL5B /// KIR2DS1 /// KIR2DS2 /// KIR2DS3 /// KIR2DS4 /// KIR3DL3 /// KIR3DL3 /// KIR3DS1 (11738374_at) / Fold change /veh KIR2DL2 /// KIR2DL4 /// KIR2DL5A /// KIR2DL5B /// KIR2DS1 /// KIR2DS2 /// KIR2DS3 /// KIR2DS4 /// KIR3DL3 /// KIR3DL3 /// KIR3DS1 (11738374_at) / RFU C1QL1 (11718748_at) / Fold change /veh C1QL1 (11718748_at) / RFU TMPRSS4 (11747572_a_at) / Fold change /veh TMPRSS4 (11747572_a_at) / RFU HAMP (11756126_x_at) / Fold change /veh HAMP (11756126_x_at) / RFU RNFT2 (11725882_a_at) / Fold change /veh RNFT2 (11725882_a_at) / RFU NR4A2 (11747474_a_at) / Fold change /veh NR4A2 (11747474_a_at) / RFU ABCC12 (11746883_a_at) / Fold change /veh ABCC12 (11746883_a_at) / RFU TMEM136 (11760407_x_at) / Fold change /veh TMEM136 (11760407_x_at) / RFU CLDN22 /// WWC2 (11732394_at) / Fold change /veh CLDN22 /// WWC2 (11732394_at) / RFU HLA-DPB1 (11760878_x_at) / Fold change /veh HLA-DPB1 (11760878_x_at) / RFU SPINT1 (11716480_a_at) / Fold change /veh SPINT1 (11716480_a_at) / RFU GAP43 (11754022_s_at) / Fold change /veh GAP43 (11754022_s_at) / RFU A4GNT (11735810_at) / Fold change /veh A4GNT (11735810_at) / RFU PRB3 (11715151_x_at) / Fold change /veh PRB3 (11715151_x_at) / RFU TUBB4B (11761932_at) / Fold change /veh TUBB4B (11761932_at) / RFU CAPN14 (11732068_a_at) / Fold change /veh CAPN14 (11732068_a_at) / RFU TMCC2 (11721928_a_at) / Fold change /veh TMCC2 (11721928_a_at) / RFU IRGQ (11745062_a_at) / Fold change /veh IRGQ (11745062_a_at) / RFU FAM174B (11720279_a_at) / Fold change /veh FAM174B (11720279_a_at) / RFU TMPRSS4 (11748680_a_at) / Fold change /veh TMPRSS4 (11748680_a_at) / RFU FAM212B (11763350_a_at) / Fold change /veh FAM212B (11763350_a_at) / RFU PLEKHG5 (11743358_a_at) / Fold change /veh PLEKHG5 (11743358_a_at) / RFU ZSCAN30 (11745921_a_at) / Fold change /veh ZSCAN30 (11745921_a_at) / RFU CMKLR1 (11741424_a_at) / Fold change /veh CMKLR1 (11741424_a_at) / RFU LOC101060620 /// MAPK8IP1 (11723275_at) / Fold change /veh LOC101060620 /// MAPK8IP1 (11723275_at) / RFU SPTSSB (11747773_x_at) / Fold change /veh SPTSSB (11747773_x_at) / RFU PRSS12 (11739890_at) / Fold change /veh PRSS12 (11739890_at) / RFU BIN1 (11741810_x_at) / Fold change /veh BIN1 (11741810_x_at) / RFU WNT11 (11732464_a_at) / Fold change /veh WNT11 (11732464_a_at) / RFU C10orf10 (11716521_a_at) / Fold change /veh C10orf10 (11716521_a_at) / RFU C5orf56 (11738089_at) / Fold change /veh C5orf56 (11738089_at) / RFU CYB561 (11721691_x_at) / Fold change /veh CYB561 (11721691_x_at) / RFU ANKRD19P (11752326_a_at) / Fold change /veh ANKRD19P (11752326_a_at) / RFU OR2T12 /// OR2T33 /// OR2T8 (11738714_s_at) / Fold change /veh OR2T12 /// OR2T33 /// OR2T8 (11738714_s_at) / RFU VCAN (11748164_a_at) / Fold change /veh VCAN (11748164_a_at) / RFU JSRP1 (11732532_at) / Fold change /veh JSRP1 (11732532_at) / RFU KRTAP10-11 (11738290_x_at) / Fold change /veh KRTAP10-11 (11738290_x_at) / RFU MYO3A (11730013_a_at) / Fold change /veh MYO3A (11730013_a_at) / RFU EBF3 (11725865_a_at) / Fold change /veh EBF3 (11725865_a_at) / RFU CAMK2N1 (11719241_x_at) / Fold change /veh CAMK2N1 (11719241_x_at) / RFU C5orf56 (11738088_a_at) / Fold change /veh C5orf56 (11738088_a_at) / RFU OLFML3 (11715873_a_at) / Fold change /veh OLFML3 (11715873_a_at) / RFU LOC100653217 /// NTM (11731650_a_at) / Fold change /veh LOC100653217 /// NTM (11731650_a_at) / RFU MAPK11 (11762145_a_at) / Fold change /veh MAPK11 (11762145_a_at) / RFU FIZ1 (11724087_x_at) / Fold change /veh FIZ1 (11724087_x_at) / RFU OASL (11726364_x_at) / Fold change /veh OASL (11726364_x_at) / RFU SOX15 (11748057_x_at) / Fold change /veh SOX15 (11748057_x_at) / RFU CD79A (11719716_a_at) / Fold change /veh CD79A (11719716_a_at) / RFU HIST1H1D (11736915_at) / Fold change /veh HIST1H1D (11736915_at) / RFU CASKIN2 (11723855_a_at) / Fold change /veh CASKIN2 (11723855_a_at) / RFU LOC730098 (11760151_x_at) / Fold change /veh LOC730098 (11760151_x_at) / RFU OR4N2 (11742367_at) / Fold change /veh OR4N2 (11742367_at) / RFU PRRT2 (11749266_a_at) / Fold change /veh PRRT2 (11749266_a_at) / RFU SNX32 (11753110_a_at) / Fold change /veh SNX32 (11753110_a_at) / RFU CDHR5 (11726645_a_at) / Fold change /veh CDHR5 (11726645_a_at) / RFU RCAN1 (11760418_a_at) / Fold change /veh RCAN1 (11760418_a_at) / RFU FAM167A (11723789_a_at) / Fold change /veh FAM167A (11723789_a_at) / RFU FAM26E (11764081_at) / Fold change /veh FAM26E (11764081_at) / RFU ISYNA1 (11749810_s_at) / Fold change /veh ISYNA1 (11749810_s_at) / RFU ACY1 (11761880_at) / Fold change /veh ACY1 (11761880_at) / RFU 11764098_at / Fold change /veh 11764098_at / RFU SAMD14 (11745864_x_at) / Fold change /veh SAMD14 (11745864_x_at) / RFU NPB (11741838_a_at) / Fold change /veh NPB (11741838_a_at) / RFU TMPRSS6 (11731388_a_at) / Fold change /veh TMPRSS6 (11731388_a_at) / RFU KRTAP10-2 (11738614_at) / Fold change /veh KRTAP10-2 (11738614_at) / RFU ARHGAP8 /// PRR5-ARHGAP8 (11727945_x_at) / Fold change /veh ARHGAP8 /// PRR5-ARHGAP8 (11727945_x_at) / RFU KRTAP5-7 /// NADSYN1 (11734609_at) / Fold change /veh KRTAP5-7 /// NADSYN1 (11734609_at) / RFU RASL12 (11751679_a_at) / Fold change /veh RASL12 (11751679_a_at) / RFU CDKN2B (11736163_a_at) / Fold change /veh CDKN2B (11736163_a_at) / RFU PRF1 (11729649_at) / Fold change /veh PRF1 (11729649_at) / RFU, ZNF638 /// ZNF638-IT1 / Fold change vs veh, ZNF638 /// ZNF638-IT1 / RFU, PANK3 / Fold change vs veh, PANK3 / RFU, SH3YL1 / Fold change vs veh, SH3YL1 / RFU, ZEB2 / Fold change vs veh, ZEB2 / RFU, NRIP1 / Fold change vs veh, NRIP1 / RFU, PTTG1IP / Fold change vs veh, PTTG1IP / RFU, CAPN2 / Fold change vs veh, CAPN2 / RFU, MED14 / Fold change vs veh, MED14 / RFU, SNORA58 / Fold change vs veh, SNORA58 / RFU, C1orf63 / Fold change vs veh, C1orf63 / RFU, LRRFIP1 / Fold change vs veh, LRRFIP1 / RFU, NDUFAF7 / Fold change vs veh, NDUFAF7 / RFU, SLC12A2 / Fold change vs veh, SLC12A2 / RFU, IBTK / Fold change vs veh, IBTK / RFU, ESF1 / Fold change vs veh, ESF1 / Fold change vs veh, TMEM50B / RFU, TAOK1 / Fold change vs veh, TAOK1 / RFU, ACBD3 / Fold change vs veh, ACBD3 / RFU, TMA16 / Fold change vs veh, TMA16 / RFU, RWDD3 / Fold change vs veh, RWDD3 / RFU, BCAT1 / Fold change vs veh, BCAT1 / RFU, EDEM3 / Fold change vs veh, EDEM3 / RFU, TMEM33 / Fold change vs veh, TMEM33 / RFU, WDR75 / Fold change vs veh, WDR75 / RFU, AHCTF1 / Fold change vs veh, AHCTF1 / RFU, TFRC / Fold change vs veh, TFRC / RFU, ZDHHC17 / Fold change vs veh, ZDHHC17 / RFU, NOM1 / Fold change vs veh, NOM1 / RFU, ARL8B / Fold change vs veh, ARL8B / RFU, ZBTB11 / Fold change vs veh, ZBTB11 / RFU, TAMM41 / Fold change vs veh, TAMM41 / RFU, KIAA1704 /// LOC100996395 / Fold change vs veh, KIAA1704 /// LOC100996395 / RFU, ING1 / Fold change vs veh, ING1 / RFU, TRMT61B / Fold change vs veh, TRMT61B / RFU, FUBP3 / Fold change vs veh, FUBP3 / RFU, TP53 / Fold change vs veh, TP53 / RFU, TNKS2 / Fold change vs veh, TNKS2 / RFU, ZFP14 / Fold change vs veh, ZFP14 / RFU, ACTR2 / Fold change vs veh, ACTR2 / RFU, PPP3R1 / Fold change vs veh, PPP3R1 / RFU, PIK3R1 / Fold change vs veh, PIK3R1 / RFU, HNRNPA1 / Fold change vs veh, HNRNPA1 / RFU, RNF170 / Fold change vs veh, RNF170 / RFU, ZNF28 / Fold change vs veh, ZNF28 / RFU, RNGTT / Fold change vs veh, RNGTT / RFU, OGT / Fold change vs veh, OGT / RFU, BRD1 / Fold change vs veh, BRD1 / RFU, MARS / Fold change vs veh, MARS / RFU, ZNF655 / Fold change vs veh, ZNF655 / RFU, FAHD1 / Fold change vs veh, FAHD1 / RFU, BDP1 / Fold change vs veh, BDP1 / RFU, LRRCC1 / Fold change vs veh, LRRCC1 / RFU, ARID1A / Fold change vs veh, ARID1A / RFU, ZNF146 / Fold change vs veh, ZNF146 / RFU, ZNF330 / Fold change vs veh, ZNF330 / RFU, GPN3 / Fold change vs veh, GPN3 / RFU, C9orf123 / Fold change vs veh, C9orf123 / RFU, N4BP2L2 / Fold change vs veh, N4BP2L2 / RFU, ARFIP1 / Fold change vs veh, ARFIP1 / RFU, FAM179B / Fold change vs veh, FAM179B / RFU, BCL10 / Fold change vs veh, BCL10 / RFU, UHRF1BP1L / Fold change vs veh, UHRF1BP1L / RFU, BET1 / Fold change vs veh, BET1 / RFU, CNOT2 / Fold change vs veh, CNOT2 / RFU, ZNF268 / Fold change vs veh, ZNF268 / Fold change vs veh, ZNF507 / RFU, DGCR2 / Fold change vs veh, DGCR2 / RFU, WDSUB1 / Fold change vs veh, WDSUB1 / Fold change vs veh, HSP90B1 /// MIR3652 / RFU, ADSS / Fold change vs veh, ADSS / RFU, GK / Fold change vs veh, GK / RFU, ZNF148 / Fold change vs veh, ZNF148 / RFU, TAF9 / Fold change vs veh, TAF9 / RFU, SLC1A5 / Fold change vs veh, SLC1A5 / RFU, SLMO2 / Fold change vs veh, SLMO2 / RFU, ABCC4 / Fold change vs veh, ABCC4 / RFU, LOC101060439 /// RAP1B / Fold change vs veh, LOC101060439 /// RAP1B / RFU, RFX7 / Fold change vs veh, RFX7 / RFU, GTPBP10 / Fold change vs veh, GTPBP10 / RFU, CNEP1R1 / Fold change vs veh, CNEP1R1 / RFU, BIVM-ERCC5 /// ERCC5 / Fold change vs veh, BIVM-ERCC5 /// ERCC5 / RFU, ILF3 / Fold change vs veh, ILF3 / RFU 11762660_at / Fold change /veh 11762660_at / RFU VCAN (11757783_s_at) / Fold change /veh VCAN (11757783_s_at) / RFU DDX43 (11728927_at) / Fold change /veh DDX43 (11728927_at) / RFU KRT8 (11758188_x_at) / Fold change /veh KRT8 (11758188_x_at) / RFU NKD1 (11759106_at) / Fold change /veh NKD1 (11759106_at) / RFU SRD5A1 (11742802_a_at) / Fold change /veh SRD5A1 (11742802_a_at) / RFU TPSAB1 /// TPSB2 (11721975_s_at) / Fold change /veh TPSAB1 /// TPSB2 (11721975_s_at) / RFU GSTM3 (11746129_a_at) / Fold change /veh GSTM3 (11746129_a_at) / RFU IL23R (11737362_x_at) / Fold change /veh IL23R (11737362_x_at) / RFU TMEM51 (11727254_a_at) / Fold change /veh TMEM51 (11727254_a_at) / RFU PIWIL2 (11732686_x_at) / Fold change /veh PIWIL2 (11732686_x_at) / RFU ORM1 (11744905_x_at) / Fold change /veh ORM1 (11744905_x_at) / RFU CCDC152 (11743942_at) / Fold change /veh CCDC152 (11743942_at) / RFU ECM1 (11717891_a_at) / Fold change /veh ECM1 (11717891_a_at) / RFU IL23R (11748794_a_at) / Fold change /veh IL23R (11748794_a_at) / RFU TNFAIP8L3 (11732012_x_at) / Fold change /veh TNFAIP8L3 (11732012_x_at) / RFU MBOAT4 (11741988_at) / Fold change /veh MBOAT4 (11741988_at) / RFU 11764193_at / Fold change /veh 11764193_at / RFU TMEM53 (11763286_at) / Fold change /veh TMEM53 (11763286_at) / RFU MAGEB2 (11727129_at) / Fold change /veh MAGEB2 (11727129_at) / RFU TMEM200A (11744735_a_at) / Fold change /veh TMEM200A (11744735_a_at) / RFU CCDC152 (11751479_a_at) / Fold change /veh CCDC152 (11751479_a_at) / RFU FAM211A (11726209_a_at) / Fold change /veh FAM211A (11726209_a_at) / RFU RGS16 (11746705_a_at) / Fold change /veh RGS16 (11746705_a_at) / RFU VCAN (11755009_s_at) / Fold change /veh VCAN (11755009_s_at) / RFU RHOB (11743442_s_at) / Fold change /veh RHOB (11743442_s_at) / RFU RGS16 (11720943_a_at) / Fold change /veh RGS16 (11720943_a_at) / RFU RGS16 (11720944_at) / Fold change /veh RGS16 (11720944_at) / RFU, VPS4B / Fold change vs veh, VPS4B / RFU, CREB1 / Fold change vs veh, CREB1 / RFU, DNAJC13 / Fold change vs veh, DNAJC13 / RFU, GNAQ / Fold change vs veh, GNAQ / RFU, CDK5R1 / Fold change vs veh, CDK5R1 / RFU, ZRANB3 / Fold change vs veh, ZRANB3 / RFU, CUL4A / Fold change vs veh, CUL4A / RFU, CCNY / Fold change vs veh, CCNY / RFU, UFL1 / Fold change vs veh, UFL1 / RFU, COG3 / Fold change vs veh, COG3 / RFU, DIAPH2 / Fold change vs veh, DIAPH2 / RFU, SKA2 / Fold change vs veh, SKA2 / RFU, AFF3 / Fold change vs veh, AFF3 / RFU, LMF1 / Fold change vs veh, LMF1 / RFU, IPO11 / Fold change vs veh, IPO11 / RFU, DFFB / Fold change vs veh, DFFB / RFU, FOXP1 / Fold change vs veh, FOXP1 / RFU, CARD8 / Fold change vs veh, CARD8 / RFU, STRN3 / Fold change vs veh, STRN3 / RFU, ADK / Fold change vs veh, ADK / RFU, RASSF2 / Fold change vs veh, RASSF2 / RFU, WIPF1 / Fold change vs veh, WIPF1 / RFU, LARP1B / Fold change vs veh, LARP1B / RFU, RASA1 / Fold change vs veh, RASA1 / RFU, RB1 / Fold change vs veh, RB1 / RFU, PPFIA1 / Fold change vs veh, PPFIA1 / RFU, MAT2A / Fold change vs veh, MAT2A / RFU, CCT5 / Fold change vs veh, CCT5 / RFU, WDR92 / Fold change vs veh, WDR92 / RFU, CUX1 / Fold change vs veh, CUX1 / RFU, TTC7A / Fold change vs veh, TTC7A / RFU, TMEM135 / Fold change vs veh, TMEM135 / RFU, DEPTOR / Fold change vs veh, DEPTOR / RFU, CPM / Fold change vs veh, CPM / RFU, DNAJB6 / Fold change vs veh, DNAJB6 / RFU, CACNA2D3 / Fold change vs veh, CACNA2D3 / RFU, DTX4 / Fold change vs veh, DTX4 / RFU, TFCP2 / Fold change vs veh, TFCP2 / RFU, GMCL1 /// GMCL1P1 / Fold change vs veh, GMCL1 /// GMCL1P1 / RFU, AEBP2 / Fold change vs veh, AEBP2 / RFU, SNHG1 /// SNORD22 /// SNORD25 /// SNORD26 /// SNORD27 /// SNORD28 /// SNORD29 /// SNORD31 / Fold change vs veh, SNHG1 /// SNORD22 /// SNORD25 /// SNORD26 /// SNORD27 /// SNORD28 /// SNORD29 /// SNORD31 / Fold change (Aza/veh), C12orf56 (ProbeSet 11735607_a_at) / Fold change (ACY-1035/veh), C12orf56 (ProbeSet 11735607_a_at) / Fold change (Aza/veh), FGFR1OP (ProbeSet 11751329_s_at) / Fold change (ACY-1035/veh), FGFR1OP (ProbeSet 11751329_s_at) / Fold change (Aza/veh), VPS36 (ProbeSet 11739960_a_at) / Fold change (ACY-1035/veh), VPS36 (ProbeSet 11739960_a_at) / RFU SYPL1 (11715823_x_at) / Fold change /veh SYPL1 (11715823_x_at) / RFU IGFBP7 (11715501_s_at) / Fold change /veh IGFBP7 (11715501_s_at) / RFU REEP3 (11722064_at) / Fold change /veh REEP3 (11722064_at) / RFU IGLL1 (11728026_x_at) / Fold change /veh IGLL1 (11728026_x_at): dose or concentration left out as unconfirmed
Settings: ProbeSet 11741070_a_at; LIST B

Nc1ccc(-c2cccs2)cc1NC(=O)c1ccc2c(c1)cc(C1CC1)n2CCN1CCOCC1 [ACY-1035]
RFU, ZNF146: 2312.59 RFU
